In patent US9861653B2, “Synergistic anti-cancer composition and a process for the preparation thereof” (Council of Scientific and Industrial Research, priority 2012, dated 2018):
“Also recorded” adds a separate entry of the source.

Assays:
[1] = test system: ANV-1 breast cancer cells with CSC-like property; assay: MTS viability assay on ANV-1 breast cancer cells; assay type: cell-based, mouse
Experimental: The % of viabilities of treated cells (Y-axis) were calculated with respect to untreated cells [* denotes p<0.001 between DX-ESC8+NRP-1 group with other groups]
Cells were treated with a) DX-nutilin+NRP-1 ShRNA plasmid, b) DX-nutilin+control plasmid, c) DX+NRP-1 ShRNA plasmid, d) nutilin as free drug. The treatments were done in two different conditions, a) continuous treatment for 48 h by the respective formulations with […] effective nutilin concentration; b) treatment for only 4 h by respective formulations with […] effective nutilin concentrations. The % viabilities of treated cells (Y-axis) were calculated with respect to untreated cells.
(§1) Cancer cells (ANV-1, PANC-1, ASPC-1) were inoculated at a concentration of 5000 cells/well of 96-well cell culture plates in 10% Fetal Calf serum (FCS) containing DMEM media. Following an incubation of minimum of 16 h at 37° C., the cells were treated in triplicate with respective lipoplexes (DX-ESC8, DO-ESC8, DX,) pre-complexed with 0.3 μg of NRP-1 or control plasmid amounts per well as discussed in Example 1. The cells were also treated with naked liposomes with or without ESC8 or free drug, ESC8, in a final volume of 300 μl (volume made up with 10% FCS containing DMEM media) continuously for 48 h (mostly) or 72 h. […] Thereafter cells were assayed for viability using MTS assay kit (Promega) following manufacturer's protocol.
For cells treated with DX-nutilin, the test solutions were: a) DX-nutilin pre-complexed with 0.3 µg of NRP-1 Sh-RNA plasmid, b) […] pre-complexed with 0.3 µg control plasmid, c) DX liposome pre-complexed with 0.3 µg NRP-1 Sh-RNA plasmid, d) only […] addition.

[2] = test system: ASPC-1 pancreatic cancer cells; assay: MTS viability assay on ASPC-1 pancreatic cancer cells; assay type: cell-based, human; conditions: 48 h or 72 h continuous treatment, ESC8 5 μM
Experimental: (§2) Cells were treated for 48 h with a) DX-ESC8+NRP-1 ShRNA plasmid, b) DX-ESC8+control plasmid, c) DO-ESC8+NRP-1 ShRNA plasmid, d) DX+NRP-1 ShRNA plasmid, followed by ESC8 treatment e) ESC8, as free drug at the drug concentration of 5 μM in either naked or respective formulated state. The % of viabilities of treated cells (Y-axis) were calculated with respect to untreated cells [* denotes p<0.01 between DX-ESC8 lipoplex groups with other groups].
Cells were treated for 72 h with a) DX-ESC8+NRP-1 ShRNA plasmid, b) DX-ESC8+control plasmid, c) DX+NRP-1 ShRNA plasmid, d) DO+NRP-1 ShRNA plasmid e) ESC8, as free drug at the drug concentration of 5 μM in either naked or respective formulated state. For groups c and d the liposome concentrations of DX or DO were equivalent to the corresponding liposome concentration in DX-ESC8 containing 5 μM ESC8. The % of viabilities of treated cells (Y-axis) were calculated with respect to untreated cells [* denotes p<0.01 between DX-ESC8 lipoplex groups or DX+NRP-1 ShRNA plasmid group with other groups].
Cancer cells (ANV-1, PANC-1, ASPC-1) were inoculated at a concentration of 5000 cells/well of 96-well cell culture plates in 10% Fetal Calf serum (FCS) containing DMEM media. […]

[3] = test system: PANC-1 pancreatic cancer cells; assay: MTS viability assay on PANC-1 pancreatic cancer cells; assay type: cell-based, human; conditions: 48 h, ESC8 5 or 2.5 μM
Experimental: as §2, with “DO-ESC8+NRP-1,” for “DO-ESC8+NRP-1 ShRNA plasmid,”, “DO-ESC8+control plasmid” for “DX+NRP-1 ShRNA plasmid, followed by ESC8 treatment”, “concentrations” for “concentration”, “5 or 2.5” for “5”
as §1

CCCCCCCC[N+](C)(CCCCCCCC)CCC[C@]1(O)CC[C@H]2[C@@H]3CCc4cc(O)ccc4[C@H]3CC[C@@]21C [ESC8, 17-α-[3-(N,N-dioctyl,N-methyl-amino)-propan-1-yl]-17β-estradiol] was tested. Which “anticancer effect towards ANV-1 breast cancer cells” value ([1]; 48 h, ESC8 10 or 5 μM naked or formulated (FIG. 1)) did it give?
The value was “very limited effect; also recorded: least anticancer effect”.

And the “viability of ANV-1 cells” value ([1]; 48 h treatment, drug concentration 10 or 5 μM, with respect to untreated cells (FIG. 1))?
The value was 60-70%.

What about the “ESC8 free drug concentration needed to get 95-100% of ANV-1 cell killing” value ([1]; 72 h treatment) of the same compound?
The value was “at least 50 μM”.

And the “visual effect on ANV-1 cells” value ([1]; shorter treatment time)?
Its value is “no visual effect”.

What about the “killing / anticancer effect on ASPC-1 cells” value [2] of the same compound?
Its value is “no anticancer effect; also recorded: least toxic effect”.

And the “anti-cancer effect on PANC-1 cells” value [3]?
Its value is “no anticancer effect; also recorded: no toxicity”.
